According to ChEMBL document CHEMBL1201862, “PubChem BioAssay data set” (2004):
The source made the active and inactive calls.

Assays:
[1] = target: Neuropeptide Y receptor type 2 (Homo sapiens, UniProt P49146); test: Fluorescence-based counterscreen for agonists of NPY-Y1: cell-based high-throughput dose response assay for agonists of NPY-Y2.; format: functional
Vero [2] = test: cells; format: functional; conditions: Chlorocebus sabaeus
[3] = target: Neuropeptide Y receptor type 1 (Homo sapiens, UniProt P25929); test: Fluorescence-based dose response cell-based high-throughput screening assay for agonists of NPY-Y1. [Related pubchem assays: 1697 (Screening assay (NPY-Y1 agonists).), 1359 (Screening assay (NPY-Y2 potentiators or agonists).), 1304 (Screening assay (NPY-Y1 potentiators or agonists).), 1704 (Screening assay (CNGC inhibitors).), 1791 (Summary AID.)]; format: functional
Chain of Neuropeptide Y receptor type 1 (P25929 whole entry): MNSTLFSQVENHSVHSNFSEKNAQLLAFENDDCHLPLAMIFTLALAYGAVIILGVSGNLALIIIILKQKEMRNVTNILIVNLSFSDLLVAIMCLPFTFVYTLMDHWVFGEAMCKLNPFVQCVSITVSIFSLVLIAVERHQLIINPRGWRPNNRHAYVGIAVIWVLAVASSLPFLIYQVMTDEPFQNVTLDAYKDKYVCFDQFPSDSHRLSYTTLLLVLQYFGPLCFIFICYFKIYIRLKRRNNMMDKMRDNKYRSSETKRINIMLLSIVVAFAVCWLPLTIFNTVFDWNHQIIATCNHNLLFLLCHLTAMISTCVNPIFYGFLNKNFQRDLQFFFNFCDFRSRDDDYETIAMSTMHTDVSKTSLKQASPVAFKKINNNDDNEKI

Vero [4] = test: cells; format: functional, cell-based; conditions: Chlorocebus sabaeus
[5] = target: T1, Long-chain-fatty-acid--AMP ligase FadD28 (Mycobacterium tuberculosis, UniProt P9WQ59); test: Fluorescence polarization aasay to screen for inhibitors that compete for the binding of FadD28 to a bisubstrate Measured in Biochemical System Using Plate Reader - 2147-01_Inhibitor_Dose_CherryPick_Activity.; format: functional, Mycobacterium tuberculosis H37Rv
T1 sequence (P9WQ59 whole entry): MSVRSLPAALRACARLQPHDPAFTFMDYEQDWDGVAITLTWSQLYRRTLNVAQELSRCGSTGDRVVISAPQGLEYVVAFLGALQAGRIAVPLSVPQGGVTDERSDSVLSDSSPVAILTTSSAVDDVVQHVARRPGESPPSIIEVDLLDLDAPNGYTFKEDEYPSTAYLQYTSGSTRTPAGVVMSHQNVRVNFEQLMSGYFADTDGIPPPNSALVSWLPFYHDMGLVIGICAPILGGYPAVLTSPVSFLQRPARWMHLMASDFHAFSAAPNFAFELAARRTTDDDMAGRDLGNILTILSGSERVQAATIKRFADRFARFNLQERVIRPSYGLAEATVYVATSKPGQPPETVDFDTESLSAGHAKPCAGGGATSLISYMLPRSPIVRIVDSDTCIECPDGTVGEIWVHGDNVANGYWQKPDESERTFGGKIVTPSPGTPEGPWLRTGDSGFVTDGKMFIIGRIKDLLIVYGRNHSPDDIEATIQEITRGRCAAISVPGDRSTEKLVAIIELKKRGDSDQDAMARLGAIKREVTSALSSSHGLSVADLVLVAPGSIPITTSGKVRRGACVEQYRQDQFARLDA

[6] = viability loss in HepG2 hepatoma cells – cell-based, ATP luminescence, cherry-pick, activator set 2, cytotoxicity control, dose response (AID 1053143); format: functional
HEK293 [7] = test: Fluorescence-based counterscreen for potentiators or agonists of NPY-Y1: cell-based high-throughput dose response assay for inhibitors of cyclic nucleotide gated ion channel (CNGC) activity. In this assay, the parental HEK293 cell line transfected with a cyclic-nucleotide gated ion channel (CNGC)-based cAMP sensor is used to measure inhibition of isoproterenol-induced CNGC …; format: functional; conditions: Homo sapiens
Interleukin-8 = Interleukin-8 (Homo sapiens, UniProt P10145); test: SAR analysis of tumor necrosis factor alpha (TNF-alpha) induced IL-8 secretion in MCF-7/NOD1 cells. [Related pubchem assays (depositor defined):AID1575, AID2250, AID2260]; format: functional, cell-based
Chain of Interleukin-8 (P10145 whole entry): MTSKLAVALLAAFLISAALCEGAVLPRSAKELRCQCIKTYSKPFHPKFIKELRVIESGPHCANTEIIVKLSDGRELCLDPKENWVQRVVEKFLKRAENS

[8] = target: Neurotensin receptor type 1 (Homo sapiens, UniProt P30989); format: functional;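 note: Image-based confirmatory dose-response assay measuring agonist activity at NTR1; NTR1-expressing U2OS osteosarcoma cells imaged for beta-arrestin GFP spot formation; agonist potency where compounds increase beta-arrestin recruitment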
Chain of Neurotensin receptor type 1 (P30989 whole entry): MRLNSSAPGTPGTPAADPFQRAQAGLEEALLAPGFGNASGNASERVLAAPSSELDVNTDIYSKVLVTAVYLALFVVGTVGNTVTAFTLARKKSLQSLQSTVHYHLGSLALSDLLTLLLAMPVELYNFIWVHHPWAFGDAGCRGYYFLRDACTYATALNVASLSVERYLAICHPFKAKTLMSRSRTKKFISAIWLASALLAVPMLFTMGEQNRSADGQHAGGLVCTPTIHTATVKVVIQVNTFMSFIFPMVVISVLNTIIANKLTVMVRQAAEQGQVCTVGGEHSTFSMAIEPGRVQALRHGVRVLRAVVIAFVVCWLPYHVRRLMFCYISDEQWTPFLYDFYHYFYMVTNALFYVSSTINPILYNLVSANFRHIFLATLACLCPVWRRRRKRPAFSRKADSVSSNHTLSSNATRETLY

[9] = target: T2, Microphthalmia-associated transcription factor (Homo sapiens, UniProt O75030); test: reducers of TRPM1 reporter luminescence, concentration series – cell-based, SK-MEL-5, cherry-picked, set 3, MITF inhibitor project, dose response (AID 493073); format: functional;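 note: SK-MEL-5 melanoma cells with luciferase driven by the MITF target TRPM1 promoter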
T2 sequence (O75030 whole entry): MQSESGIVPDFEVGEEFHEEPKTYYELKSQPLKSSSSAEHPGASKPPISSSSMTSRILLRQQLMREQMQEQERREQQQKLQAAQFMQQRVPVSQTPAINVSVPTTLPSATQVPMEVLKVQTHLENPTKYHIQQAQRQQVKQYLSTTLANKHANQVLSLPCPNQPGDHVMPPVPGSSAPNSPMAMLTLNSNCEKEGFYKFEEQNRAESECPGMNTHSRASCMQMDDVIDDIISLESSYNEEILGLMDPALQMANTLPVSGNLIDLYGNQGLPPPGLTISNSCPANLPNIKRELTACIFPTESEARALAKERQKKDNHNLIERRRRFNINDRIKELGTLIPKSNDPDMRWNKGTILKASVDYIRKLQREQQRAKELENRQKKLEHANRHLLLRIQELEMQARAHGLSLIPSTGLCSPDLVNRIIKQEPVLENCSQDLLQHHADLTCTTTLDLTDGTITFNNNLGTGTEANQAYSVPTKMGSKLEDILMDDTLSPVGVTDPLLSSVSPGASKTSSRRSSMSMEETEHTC

[10] = target: T3, Eukaryotic translation initiation factor 2-alpha kinase 3 (Homo sapiens, UniProt Q9NZJ5); test: Counterscreen assay for PERK inhibitors: Dose response cell-based high throughput screening assay to measure inhibition of PERK at 6 hours. [Related pubchem assays: 1522, 1416 ]; format: functional
T3 sequence (Q9NZJ5 whole entry): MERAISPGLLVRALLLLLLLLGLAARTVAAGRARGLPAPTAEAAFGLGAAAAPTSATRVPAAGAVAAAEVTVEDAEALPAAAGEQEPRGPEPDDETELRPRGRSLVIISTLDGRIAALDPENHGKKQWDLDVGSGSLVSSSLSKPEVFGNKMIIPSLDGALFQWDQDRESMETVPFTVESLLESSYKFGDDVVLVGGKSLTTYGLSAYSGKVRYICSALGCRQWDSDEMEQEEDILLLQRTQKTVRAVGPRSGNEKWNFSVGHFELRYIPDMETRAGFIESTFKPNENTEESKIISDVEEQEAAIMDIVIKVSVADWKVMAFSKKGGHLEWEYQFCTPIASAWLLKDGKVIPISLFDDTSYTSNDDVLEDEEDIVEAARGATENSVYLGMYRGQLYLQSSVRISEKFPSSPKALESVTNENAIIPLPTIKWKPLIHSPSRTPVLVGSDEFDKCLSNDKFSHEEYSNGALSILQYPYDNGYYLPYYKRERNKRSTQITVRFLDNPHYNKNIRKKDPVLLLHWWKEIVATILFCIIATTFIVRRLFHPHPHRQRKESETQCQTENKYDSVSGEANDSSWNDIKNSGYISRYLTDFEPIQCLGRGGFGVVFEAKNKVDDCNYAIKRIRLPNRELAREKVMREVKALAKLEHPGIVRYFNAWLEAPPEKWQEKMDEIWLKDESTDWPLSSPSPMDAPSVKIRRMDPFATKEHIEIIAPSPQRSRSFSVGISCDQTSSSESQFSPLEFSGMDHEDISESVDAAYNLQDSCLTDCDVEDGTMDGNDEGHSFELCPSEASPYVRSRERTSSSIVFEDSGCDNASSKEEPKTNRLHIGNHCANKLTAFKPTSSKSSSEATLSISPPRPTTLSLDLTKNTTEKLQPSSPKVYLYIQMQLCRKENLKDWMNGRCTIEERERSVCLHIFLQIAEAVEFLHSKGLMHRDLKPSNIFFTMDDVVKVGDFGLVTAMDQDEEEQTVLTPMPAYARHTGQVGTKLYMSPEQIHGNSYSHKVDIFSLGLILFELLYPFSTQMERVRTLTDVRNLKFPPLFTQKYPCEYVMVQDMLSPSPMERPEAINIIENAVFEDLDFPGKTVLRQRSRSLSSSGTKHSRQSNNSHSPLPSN

[11] = target: T3, Eukaryotic translation initiation factor 2-alpha kinase 3; test: Dose response cell-based high-throughput screening assay to measure PERK inhibition. [Related pubchem assays: 1416 ]; format: functional
[12] = ADP-Glo luciferase signal interference – biochemical, luminescence, cherry-picked samples, set 2, artefact control for CDK5 inhibitor project, dose response (AID 504546); format: functional, cell-based
[13] = luciferase reporter signal suppression in cells – H4 neuroglioma cells, luminescence, dose response (AID 1990); format: functional, cell-based
HEK293 [14] = test: EBV LMP1 TES2 canonical NF-kB signalling blockers – cell-based, HEK293, luciferase, cherry-pick, dose response (AID 588343); format: functional; conditions: Homo sapiens
[15] = Luminescence Cell-Based Dose Confirmation HTS to Identify Inhibitors of Platelet Dense Granule Release. [Related pubchem assays: 1663 (Primary HTS), 1678 (Summary of Project)]; format: functional
[16] = alpha-synuclein stem-loop luciferase translation blockers – H4 neuroglioma cells, luminescence, confirmation (AID 1988); format: functional, cell-based
[17] = Luminescence Cell-Based Dose Response HTS to Identify Inhibitors of 5'UTR Stem-Loop Driven Prion Protein mRNA Translation in H4 Neuroglioblastoma Cells. [Related pubchem assays: 1827 (Project Summary), 1813 (Primary HTS)]; format: functional
[18] = target: Cyclin-dependent kinase 5/CDK5 activator 1 (Homo sapiens, UniProt Q00535); test: blockade of human CDK5 activity – biochemical, cherry-picked samples, set 2, dose response (AID 504545)
Chain of Cyclin-dependent kinase 5/CDK5 activator 1 (Q00535 whole entry): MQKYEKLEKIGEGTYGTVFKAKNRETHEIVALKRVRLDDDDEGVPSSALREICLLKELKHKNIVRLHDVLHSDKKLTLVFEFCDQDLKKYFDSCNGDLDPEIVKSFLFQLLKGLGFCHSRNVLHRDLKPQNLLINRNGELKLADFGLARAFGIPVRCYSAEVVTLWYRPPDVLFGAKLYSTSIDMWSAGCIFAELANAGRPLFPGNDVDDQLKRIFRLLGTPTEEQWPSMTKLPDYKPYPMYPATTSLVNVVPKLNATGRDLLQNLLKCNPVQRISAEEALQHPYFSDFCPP
Chain of Cyclin-dependent kinase 5/CDK5 activator 1 (Q15078 whole entry, further chain): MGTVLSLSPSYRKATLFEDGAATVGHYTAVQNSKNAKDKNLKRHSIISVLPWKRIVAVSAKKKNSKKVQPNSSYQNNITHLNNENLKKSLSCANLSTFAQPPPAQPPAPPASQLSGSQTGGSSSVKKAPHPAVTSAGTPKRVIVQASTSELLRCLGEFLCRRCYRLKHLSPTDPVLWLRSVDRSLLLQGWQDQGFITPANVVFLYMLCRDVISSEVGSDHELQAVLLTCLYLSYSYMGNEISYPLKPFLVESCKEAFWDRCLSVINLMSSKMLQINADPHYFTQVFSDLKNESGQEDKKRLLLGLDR

cells = format: functional
[19] = target: Luciferin 4-monooxygenase (Photinus pyralis, UniProt P08659); test: inhibition of purified Photinus pyralis luciferase – biochemical, luminescence, dose response (AID 1891)
Chain of Luciferin 4-monooxygenase (P08659 whole entry): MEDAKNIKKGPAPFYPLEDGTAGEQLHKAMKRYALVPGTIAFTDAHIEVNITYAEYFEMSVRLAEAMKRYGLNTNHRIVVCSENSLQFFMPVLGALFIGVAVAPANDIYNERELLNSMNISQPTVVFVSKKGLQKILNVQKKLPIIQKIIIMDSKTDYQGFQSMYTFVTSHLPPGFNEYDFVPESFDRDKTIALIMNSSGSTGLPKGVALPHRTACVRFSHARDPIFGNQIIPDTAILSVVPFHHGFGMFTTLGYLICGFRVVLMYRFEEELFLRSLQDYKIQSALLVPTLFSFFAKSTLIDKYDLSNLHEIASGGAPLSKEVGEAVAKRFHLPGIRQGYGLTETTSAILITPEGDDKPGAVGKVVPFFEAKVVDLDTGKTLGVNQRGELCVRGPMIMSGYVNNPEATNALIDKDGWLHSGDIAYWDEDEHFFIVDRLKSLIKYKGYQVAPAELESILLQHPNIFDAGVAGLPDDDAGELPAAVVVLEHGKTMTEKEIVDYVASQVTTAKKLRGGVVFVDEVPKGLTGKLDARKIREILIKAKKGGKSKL

Chain of Neuropeptide Y receptor type 2 (P49146 whole entry): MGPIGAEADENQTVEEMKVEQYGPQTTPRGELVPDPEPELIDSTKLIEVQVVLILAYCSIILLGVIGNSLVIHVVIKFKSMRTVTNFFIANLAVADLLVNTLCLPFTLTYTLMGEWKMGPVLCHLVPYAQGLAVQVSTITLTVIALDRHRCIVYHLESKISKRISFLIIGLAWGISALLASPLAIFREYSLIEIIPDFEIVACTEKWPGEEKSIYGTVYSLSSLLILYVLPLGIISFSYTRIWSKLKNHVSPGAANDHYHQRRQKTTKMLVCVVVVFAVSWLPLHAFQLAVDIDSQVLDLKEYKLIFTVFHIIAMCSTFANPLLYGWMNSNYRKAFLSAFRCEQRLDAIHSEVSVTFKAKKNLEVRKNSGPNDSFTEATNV

Cn1cc([N+](=O)[O-])c(C(=O)Nc2ccc(C3CCCCC3)cc2)n1
EC50 [1]: 12.1 µM (not active)
CC50 (Vero [2]): > 25 µM (active)
EC50 [3]: 9.71 µM (active)
IC50 (Vero [4]): 9.92 µM (active)
AC50 [5]: > 100 µM (inactive)
AC50 [6]: 18.5 µM (active)
IC50 (HEK293 [7]): 8.17 µM (active)

COc1ccc(S(=O)(=O)n2c(N)nc3ccccc32)cc1
IC50 (Interleukin-8): > 5 µM (inactive)

Cc1cccc(N2C(=O)NC(=O)/C(=C\c3cccn3-c3ccc(Cl)cc3)C2=O)c1
CC50 (Vero [2]): 23.4 µM (active)
EC50 [8]: 9.06 µM (active)
AC50 [9]: 8.91 µM (active)

C=CCNC(=O)Nc1ccc(F)cc1F
EC50 [10]: > 55.7 µM (not active)
EC50 [11]: > 55.7 µM (not active)

CCOc1ccc(OCC(=O)Nc2nccs2)cc1
AC50 [12]: 31.3 µM (active)
EC50 [13]: 8.12 µM (active)
AC50 (HEK293 [14]): 2.74 µM (active)
EC50 [15]: 2.37 µM (active)
EC50 [16]: 6.85 µM (active)
EC50 [17]: 9.78 µM (active)
AC50 [18]: 21.2 µM (active)
IC50 (cells): 20.2 µM (active)
EC50 [19]: 5.61 µM (active)
